Assay results reported in US20230012368A1 (Hoffmann-La Roche Inc., priority 2018, published 2023).
Where a name gives a salt, the structure may show the parent alone. Read-outs that look alike come from different tables or passages of the source.

Tested on: Acinetobacter baumannii ATCC 17978
Assay: Antimicrobial susceptibility testing: 90% growth inhibitory concentration (IC90) determination
Type: cell-based
Details: 90% growth inhibitory concentration, Acinetobacter baumannii ATCC17978, Iso-Sensitest broth, OD 600 nm over 16h, read-out: ATCC17978 IC90
In short: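 Growth of the Acinetobacter baumannii strain was followed by optical density at 600 nm every 20 minutes for 16h at 35±2° C. Inoculum was ~5×10^(5) CFU/ml in Iso-Sensitest medium, with twofold compound dilutions (e.g. 50 to 0.097 μM final). The 90% inhibitory concentration was derived in log-phase growth.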

[1] = Acinetobacter baumannii, ATCC17978, 16 h

CCc1cc(Nc2nccn3c(-c4ccc(Oc5cnn[nH]5)c(F)c4F)cnc23)ccc1C(=O)NCC1CCN(CC2CCNC2)CC1 (stereo not shown) [Example 557, 4-[[3-[2,3-difluoro-4-(1#H!- triazol-5-yloxy)phenyl]imidazo[1,2-a]pyrazin-8-yl]amino]-2-ethyl-#N!-[[1-(pyrrolidin-3-ylmethyl)piperidin-4-yl]methyl]benzamide;formic acid]
IC90 [1]: 480 nM

CCc1cc(Nc2nccn3c(-c4ccc(Oc5ncccn5)c(F)c4F)cnc23)ccc1C(=O)NCCCCCN [Example 558, N-(5-aminopentyl)-4-((3-(2,3-difluoro-4-(pyrimidin-2-yloxy)phenyl)imidazo[1,2-a]pyrazin-8-yl)amino)-2-ethylbenzamide formate]
IC90 [1]: 190 nM

CCc1cc(Nc2nccn3c(-c4ccc(OC)c(F)c4F)cnc23)ccc1C(=O)NCC1CCN(CC(=O)O)CC1 [Example 559, 2-[4-[[[4-[[3-(2,3-difluoro-4-methoxy-phenyl)imidazo[1,2-a]pyrazin-8-yl]amino]-2-ethyl-benzoyl]amino]methyl]-1-piperidyl]acetic acid]
IC90 [1]: 270 nM

CCc1cc(Nc2nccn3c(-c4ccc(OC)c(F)c4F)cnc23)ccc1C(=O)NCc1ccncc1 [Example 560, 4-((3-(2,3-difluoro-4-methoxyphenyl)imidazo[1,2-a]pyrazin-8-yl)amino)-2-ethyl-N-(pyridin-4-ylmethyl)benzamide formate]
IC90 [1]: 80 nM

CCc1cc(Nc2nccn3c(-c4ccc(OC)c(F)c4F)cnc23)ccc1C(=O)NCCN1CCC(C(N)=O)C1 (stereo not shown) [Example 561, 1-[2-[[4-[[3-(2,3-difluoro-4-methoxy-phenyl)imidazo[1,2-a]pyrazin-8-yl]amino]-2-ethyl-benzoyl]amino]ethyl]pyrroli-dine-3-carboxamide]
IC90 [1]: 190 nM

CCc1cc(Nc2nccn3c(-c4ccc(OC)c(F)c4F)cnc23)ccc1C(=O)NCC1CCN(C(C)(C)C(=O)O)CC1 [Example 562, 2-(4-((4-((3-(2,3-difluoro-4-methoxyphenyl)imidazo[1,2-a]pyrazin-8-yl)amino)-2-ethylbenzamido)methyl)piper-idin-1-yl)-2-methylpropanoic acid compound with formic acid]
IC90 [1]: 320 nM

CCc1cc(Nc2nccn3c(-c4ccc(Oc5ccncn5)c(F)c4F)cnc23)ccc1C(=O)NCCCNC(=O)CCCNCCCN [Example 563, N-[3-[4-(3-aminopropylamino)butanoyl-amino]propyl]-4-[[3-(2,3-difluoro-4-pyrimidin-4-yloxy-phenyl)imidazo[1,2-a]pyrazin-8-yl]amino]-2-ethyl-benzamide; formic acid]
IC90 [1]: 190 nM

CCc1cc(Nc2nccn3c(-c4ccc(OC)c(F)c4F)cnc23)ccc1C(=O)NCCNC(=O)CCCNCCCN [Example 564, N-(2-(4-((3-aminopropyl)amino)butanami-do)ethyl)-4-((3-(2,3-difluoro-4-methoxyphenyl)imidazo[1,2-a]pyrazin-8-yl)amino)-2-ethylbenzamide trihydrochloride]
IC90 [1]: 500 nM

CCc1cc(Nc2nccn3c(-c4ccc(Oc5ccncn5)c(F)c4F)cnc23)ccc1C(=O)NCCCNC(=O)NCCNCCCN [Example 565, N-[3-[2-(3-aminopropylamino)ethylcar-bamoylamino]propyl]-4-[[3-(2,3-difluoro-4-pyrimidin-4-yloxy-phenyl)imidazo[1,2-a]pyrazin-8-yl]amino]-2-ethyl-benzamide; formic acid]
IC90 [1]: 300 nM

CCc1cc(Nc2nccn3c(-c4ccc(OC)c(F)c4F)cnc23)ccc1C(=O)N[C@H](C)C(=O)NCCNC [Example 566, 4-[[3-(2,3-difluoro-4-methoxy-phenyl)imidazo[1,2-a]pyrazin-8-yl]amino]-2-ethyl-N-[(1R)-1-methyl-2-[2-(methylamino)ethylamino]-2-oxo-ethyl]benzamide]
IC90 [1]: 950 nM

CCc1cc(Nc2nccn3c(-c4ccc(OC)c(F)c4F)cnc23)ccc1C(=O)N[C@@H](C)C(=O)NCCNC [Example 567, 4-[[3-(2,3-difluoro-4-methoxy-phenyl)imidazo[1,2-a]pyrazin-8-yl]amino]-2-ethyl-N-[(1S)-1-methyl-2-[2-(methylamino)ethylamino]-2-oxo-ethyl]benzamide]
IC90 [1]: 650 nM

CNCCCN1CCc2cc(Nc3nccn4c(-c5ccc(OC)c(F)c5F)cnc34)ccc2C1=O [Example 568, 6-[[3-(2,3-difluoro-4-methoxy-phenyl)imidazo[1,2-a]pyrazin-8-yl]amino]-2-[3-(methylamino)propyl]-3,4-dihydroisoquinolin-1-one]
IC90 [1]: 390 nM

CCc1cc(Nc2nccn3c(-c4ccc(OC)c(F)c4F)cnc23)ccc1C(=O)NCc1cnc(N)s1 [Example 569, N-((2-aminothiazol-5-yl)methyl)-4-((3-(2,3-difluoro-4-methoxyphenyl)imidazo[1,2-a]pyrazin-8-yl)amino)-2-ethylbenzamide]
IC90 [1]: 84 nM

COc1ccc(-c2cnc3c(Nc4ccc(C(=O)N5CCC(C(=O)NCC6CN(C)C6)CC5)c(C)c4)nccn23)cc1F [REF 114, 1-(4-((3-(3-fluoro-4-methoxyphenyl)imidazo [1,2-a]pyrazin-8-yl)amino)-2-methylbenzoyl)-N-((1-methylazetidin-3-yl)methyl)piperidine-4-carboxamide]
IC90 [1]: 470 nM

CCN(C(=O)NCCCN(C)C)C(=O)c1ccc(Nc2nccn3c(-c4ccc(OCC#N)c(F)c4F)cnc23)cc1Cl [REF 149, 2-chloro-4-[[3-[4-(cyanomethoxy)-2,3-difluoro-phenyl]imidazo[1,2-a]pyrazin-8-yl]amino]-N-[3-(dimethylamino)propylcarbamoyl]-N-ethyl-benzamide]
IC90 [1]: 450 nM

tert-butyl 3-[[[4-[[3- [4- (difluoromethoxy) phenyl]imidazo[1,2- a]pyrazin-8- yl]amino]-2-methyl- benzoyl]amino] methyl] pyrrolidine-1- carboxylate [Example 47]
IC90: 1700 nM
